Laboratory results reported in ChEMBL document CHEMBL1132527, “Synthesis, structural characterization and antitumor activity evaluations of copper complex with tetraazamacrocyclic ligand” (Bioorg Med Chem Lett, 1999).

Legend:
Type in all cases: functional, cell-based
BEL-7404 tumor cell line [1] = assay: In vitro antitumor activity against BEL-7404 tumor cell lines at 10e-5 mol/L conentation; details: Homo sapiens
BEL-7404 tumor cell line [2] = assay: In vitro antitumor activity against BEL-7404 tumor cell lines at 10e-6 mol/L conentation; details: Homo sapiens
BEL-7404 tumor cell line [3] = assay: In vitro antitumor activity against BEL-7404 tumor cell lines at 10e-7 mol/L conentation; details: Homo sapiens
BEL-7404 tumor cell line [4] = assay: In vitro antitumor activity against BEL-7404 tumor cell lines at 10e-8 mol/L conentation; details: Homo sapiens
P388 [5] = assay: In vitro antitumor activity against P388 tumor cell lines at 10e-5 mol/L conentation; details: Mus musculus
BEL-7404 tumor cell line [6] = assay: In vitro antitumor activity against BEL-7404 tumor cell lines at 10e-4 mol/L conentation; details: Homo sapiens
P388 [7] = assay: In vitro antitumor activity against P388 tumor cell lines at 10e-4 mol/L conentation; details: Mus musculus

For “Copper complex with 1,4,7,10-tetrakis(2-cyanolethyl-)-l,4,7,10-tetraazacyclododecane”, the inhibition (BEL-7404 tumor cell line [1]) was 75.6%, the inhibition (BEL-7404 tumor cell line [2]) was 78% and the inhibition (BEL-7404 tumor cell line [3]) was 5.6%. The inhibition (BEL-7404 tumor cell line [4]) was 10%, the inhibition (P388 [5]) was 96.4% and the inhibition (BEL-7404 tumor cell line [6]) was 63.3%. The inhibition (P388 [7]) was 100%.
